Bridge positions count the residues as written; N and C are the ends. Square brackets hold non-standard residues; d marks the D form. Peptide text beside a SMILES is read from it. 2Nal = N[C@@H](Cc1ccc2ccccc2c1)C(=O)O; Cit = NC(=O)NCCC[C@H](N)C(=O)O; Dab = NCC[C@H](N)C(=O)O
How the values were obtained:
CXCR4 [1] = molecular target: T1, CXCR4 (Homo sapiens, UniProt P61073); assay: Ca2+-assay method 1: CXCR4-antagonizing activity; format: cell-based; design: expressed in transfected cells; details: method 1 (Ex. 1-53), CXCR4 transfected pre-B cells, Fura-2; read-out: IC50 (nM) Ca^2+ assay
Method: 2.2. Ca^2+-Assay: CXCR4-Antagonizing Activity of the Peptides.
The cells were washed free from Fura-2-AM with a platelet centrifuge and resuspended in 800 μl MSB containing 5 mM D-Glucose. The peptides to be administered were diluted to a 100 fold end concentration in MSB/0.2% PPL, and 8 μl were injected. […] Measurements were done under continuous stirring at 37° C. The signal intension was calibrated with 3 mM CaCl2/[…] lonomycin (maximal fura-2-acetoxymethylester saturation) and 10 μM MnCl2 (minimal Fura-2-acetoxymethylester saturation) and [Ca^2+]i-changes are presented in % fora-2-acetoxymethylester saturation. The rate of [Ca^2+]i-changes was calculated on the basis of the initial [Ca^2+]i-changes and plotted in dependence of chemokine concentration to obtain a sigmoidal curve and to determine the IC50 values.
Osmolarity: 310 mOsm adjusted with NaOH or HCl, adjusted with H2O or PBS.
MSB plus: 5 mM D-glucose in MSB (50 mg/50 mL).
Fura 2-acetoxymethylester: 1 mM stock solution in dimethylsulfoxide.

in vitro [2] = details: human; for CC50 at 48 h: HELA cells (Acc57)
[3] = test system: human red blood cells (hRBC); assay: Hemolysis; format: cell-based
Outline: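 Washed fresh human erythrocytes (20% v/v, about 0.9×10^9 cells/ml final) incubated with peptide at 100 μM for 1 h at 37° C. Supernatant diluted 20-fold and OD540 read. Percent hemolysis relative to 0.1% Triton X-100 in H2O (100%), with PBS alone as 0%.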

in vitro [4] = format: in vitro ADME; details: plasma
Method: 405 μl of plasma/albumin solution were placed in a polypropylene (PP) tube and spiked with 45 μl of compound from a 100 μM solution B, derived from 135 μl of PBS and 15 μl of 1 mM peptide in PBS, pH 7.4. 150 μl aliquots were transferred into individual wells of the 10 kDa filter plate (Millipore MAPPB 1010 Biomax membrane). For “0 minutes controls”: 270 μl of PBS were placed in a PP tube and 30 μl of stock solution B was added and vortexed. 150 μl of control solution was placed into one well of the filter plate and serves as “filtered control”.
Further 150 μl of control solution were placed directly into a receiver well (reserved for filtrate) and serve as “not-filtered control”. The entire plate including evaporation lid was incubated for 60 min at 37° C. Plasma samples (rat plasma: Harlan Sera lab UK, human plasma: Blutspendezentrum Zürich) were centrifuged at least for 2 h at 4300 rpm (3500 g) and 15° C. in order to yield 100 μl filtrate. For “serum albumin”-samples (freshly prepared human albumin: Sigma A-4327, rat albumin: Sigma A-6272, all at 40 mg/ml concentration in PBS) approximately 1 hour of centrifugation is sufficient. The filtrates in the receiver PP plate were analysed by LC/MS as followes: Column: Jupiter C18 (Phenomenex), mobile phases: (A) 0.1% formic acid in water and (B) acetonitrile, gradient: 5%-100% (B) in 2 minutes, electrospray ionization, MRM detection (triple quadrupole). The peak areas were determined and triplicate values are averaged. The binding is expressed in percent of the (filtered and not-filtered time point 0 min) control 1 and 2 by: 100−(100*T60/T0). The average from these values is then calculated (see ref. 9 below).

CXCR4 [5] = molecular target: T1, CXCR4; assay: Ca2+-assay method 2 (Flexstation, SDF-1 induced calcium mobilization); format: cell-based; design: expressed in transfected cells; host or cells: mouse pre-B cell line 300-19; details: method 2 (Ex. 54-160), mouse pre-B cell line 300-19 with human CXCR4, 10 nM SDF-1; read-out: IC50 (nM) Ca^2+ assay
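For CC50 in this document: MTT reduction read as absorbance at 595 nm, blank-corrected and expressed as percent growth relative to the time-zero cell reading, triplicate wells per concentration.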
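For GI50 in this document: MTT reduction read as absorbance at 595 nm, blank-corrected and expressed as percent growth relative to the time-zero cell reading, triplicate wells per concentration.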

T1 sequence (P61073 whole entry): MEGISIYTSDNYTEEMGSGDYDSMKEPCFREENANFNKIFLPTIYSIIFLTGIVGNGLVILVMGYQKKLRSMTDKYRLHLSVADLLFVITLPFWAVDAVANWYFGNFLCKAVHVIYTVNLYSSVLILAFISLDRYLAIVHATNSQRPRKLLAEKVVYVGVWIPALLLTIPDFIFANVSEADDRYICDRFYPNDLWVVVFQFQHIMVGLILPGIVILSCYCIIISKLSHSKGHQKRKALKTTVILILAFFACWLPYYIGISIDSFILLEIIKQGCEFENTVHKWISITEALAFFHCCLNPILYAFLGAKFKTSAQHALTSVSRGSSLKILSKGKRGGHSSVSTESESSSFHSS

| Structure (SMILES) | IC50 (CXCR4 [1]) [nM] | CC50 at 48 h (in vitro [2]) [µM] | Hemolysis at 100 μM [3] [%] | half-life at 10 μM (in vitro [4]; human) [h] | half-life at 10 μM (in vitro [4]; rat) [h] | GI50 at 48 h (in vitro [2]) [µM] | IC50 (CXCR4 [5]) [nM] |
| --- | --- | --- | --- | --- | --- | --- | --- |
| CC(C)[C@@H]1NC(=O)[C@H](CCCNC(N)=O)NC(=O)[C@H](CCCNC(=N)N)NC(=O)[C@H](Cc2ccc(O)cc2)NC(=O)[C@@H]2CCCN2C(=O)[C@H]2CCCN2C(=O)[C@H](CCCCN)NC(=O)[C@H](CCCNC(N)=O)NC(=O)[C@H](Cc2ccc(O)cc2)NC(=O)[C@H](Cc2ccccc2)NC(=O)[C@H](Cc2ccc3ccccc3c2)NC(=O)[C@H](CCCNC(=N)N)NC(=O)[C@@H](CCCNC(=N)N)NC(=O)[C@H](CCCNC(=N)N)NC1=O [Ex. 1] (cyclo(YR[Cit]VR[dR]R[2Nal]FY[Cit]K[dP]P)) | 2280 | 82 | 1.6 | – | – | – | – |
| CC(C)[C@@H]1NC(=O)[C@H](CCCNC(N)=O)NC(=O)[C@H](CCCNC(=N)N)NC(=O)[C@H](Cc2ccc(O)cc2)NC(=O)[C@@H]2CCCN2C(=O)[C@H]2CCCN2C(=O)[C@H](CCCCN)NC(=O)[C@H](CCCNC(N)=O)NC(=O)[C@H](Cc2ccc(O)cc2)NC(=O)[C@H](C(C)C)NC(=O)[C@H](Cc2ccc3ccccc3c2)NC(=O)[C@H](CCCNC(=N)N)NC(=O)[C@H](CCCNC(=N)N)NC(=O)[C@H](CCCNC(=N)N)NC1=O [Ex. 6] (cyclo(YR[Cit]VRRR[2Nal]VY[Cit]K[dP]P)) | 1930 | 103 | 0.6 | – | – | – | – |
| N=C(N)NCCC[C@@H]1NC(=O)[C@H](CO)NC(=O)[C@H](CCCNC(N)=O)NC(=O)[C@H](CCCNC(=N)N)NC(=O)[C@H](Cc2ccc(O)cc2)NC(=O)[C@@H]2CCCN2C(=O)[C@H]2CCCN2C(=O)[C@H](CCCCN)NC(=O)[C@H](CCCNC(N)=O)NC(=O)[C@H](Cc2ccc(O)cc2)NC(=O)[C@H](CC(N)=O)NC(=O)[C@H](Cc2c[nH]c3ccccc23)NC(=O)[C@H](CCCNC(=N)N)NC(=O)[C@H](CCCNC(=N)N)NC(=O)[C@H]2CCCN2C(=O)CNC1=O [Ex. 151] (cyclo(YR[Cit]SRG[dP]RRWNY[Cit]K[dP]P)) | – | – | 0.9 | 1.48 | 1.18 | 83 | 4.2 |
| N=C(N)NCCC[C@@H]1NC(=O)[C@@H]2CCNC(=O)CC[C@H](NC(=O)[C@H](Cc3c[nH]c4ccccc34)NC(=O)[C@H](CCCNC(=N)N)NC(=O)[C@H](CCCNC(=N)N)NC(=O)[C@H]3CCCN3C(=O)CNC1=O)C(=O)N[C@@H](Cc1ccc(O)cc1)C(=O)N[C@@H](CCCNC(N)=O)C(=O)N[C@@H](CCCCN)C(=O)N1CCC[C@@H]1C(=O)N1CCC[C@H]1C(=O)N[C@@H](Cc1ccc(O)cc1)C(=O)N[C@@H](CCCNC(=N)N)C(=O)N[C@@H](CCCNC(N)=O)C(=O)N2 [Ex. 152] (cyclo(YR[Cit][Dab]RG[dP]RRWEY[Cit]K[dP]P); lactam 4-11) | – | – | 0 | 0.383 | 1.43 | 46 | 4.2 |
| CC(C)[C@@H]1NC(=O)[C@H](Cc2ccc3ccccc3c2)NC(=O)[C@H](CCCNC(=N)N)NC(=O)[C@@H](CCCNC(=N)N)NC(=O)[C@H](CCCNC(=N)N)NC(=O)[C@H](C(C)C)NC(=O)[C@H](CCCNC(N)=O)NC(=O)[C@H](CCCNC(=N)N)NC(=O)[C@H](Cc2ccc(O)cc2)NC(=O)[C@@H]2CCCN2C(=O)[C@H]2CCCN2C(=O)[C@H](CCCCN)NC(=O)[C@H](CCCNC(N)=O)NC(=O)[C@H](Cc2ccc(O)cc2)NC1=O [compound 2] (cyclo(YR[Cit]VR[dR]R[2Nal]VY[Cit]K[dP]P)) | 2830 | 97 | 0.9 | – | – | – | – |
| N=C(N)NCCC[C@@H]1NC(=O)[C@H](CCCNC(=N)N)NC(=O)[C@H](Cc2ccccc2)NC(=O)[C@H](CCCNC(N)=O)NC(=O)[C@H](CCCNC(=N)N)NC(=O)[C@H](Cc2ccc(O)cc2)NC(=O)[C@@H]2CCCN2C(=O)[C@H]2CCCN2C(=O)[C@H](CCCCN)NC(=O)[C@H](CCCNC(N)=O)NC(=O)[C@H](Cc2ccc(O)cc2)NC(=O)[C@H](Cc2ccccc2)NC(=O)[C@H](Cc2ccc3ccccc3c2)NC(=O)[C@H](CCCNC(=N)N)NC1=O [compound 3] (cyclo(YR[Cit]FRRR[2Nal]FY[Cit]K[dP]P)) | 1000 | 126 | 1.7 | – | – | – | – |
| CC(C)[C@@H]1NC(=O)[C@H](CCCNC(N)=O)NC(=O)[C@H](CCCNC(=N)N)NC(=O)[C@H](Cc2ccc(O)cc2)NC(=O)[C@@H]2CCCN2C(=O)[C@H]2CCCN2C(=O)[C@H](CCCCN)NC(=O)[C@H](CCCNC(N)=O)NC(=O)[C@H](Cc2ccc(O)cc2)NC(=O)[C@H](Cc2ccccc2)NC(=O)[C@H](Cc2ccc3ccccc3c2)NC(=O)[C@H](CCCNC(=N)N)NC(=O)[C@H](CCCNC(=N)N)NC(=O)[C@H](CCCNC(=N)N)NC1=O [compound 4] (cyclo(YR[Cit]VRRR[2Nal]FY[Cit]K[dP]P)) | 2540 | 191 | 0.7 | – | – | – | – |
| CC(C)[C@@H]1NC(=O)[C@H](Cc2ccc3ccccc3c2)NC(=O)[C@H](CCCNC(=N)N)NC(=O)[C@H](CCCNC(=N)N)NC(=O)[C@@H]2CCCN2C(=O)[C@H](CCCNC(N)=O)NC(=O)[C@H](CCCNC(=N)N)NC(=O)[C@H](Cc2ccccc2)NC(=O)[C@H](CCCNC(N)=O)NC(=O)[C@H](CCCNC(=N)N)NC(=O)[C@H](Cc2ccc(O)cc2)NC(=O)[C@@H]2CCCN2C(=O)[C@H]2CCCN2C(=O)[C@H](CCCCN)NC(=O)[C@H](CCCNC(N)=O)NC(=O)[C@H](Cc2ccc(O)cc2)NC1=O [compound 20] (cyclo(YR[Cit]FR[Cit]PRR[2Nal]VY[Cit]K[dP]P)) | 3730 | 85 | 0.2 | – | – | – | – |
| CC(C)[C@@H]1NC(=O)[C@H](Cc2ccc3ccccc3c2)NC(=O)[C@H](CCCNC(=N)N)NC(=O)[C@H](CCCNC(=N)N)NC(=O)[C@H]2CCCN2C(=O)[C@H](C(C)C)NC(=O)[C@H](CCCNC(=N)N)NC(=O)[C@H](Cc2ccccc2)NC(=O)[C@H](CCCNC(N)=O)NC(=O)[C@H](CCCNC(=N)N)NC(=O)[C@H](Cc2ccc(O)cc2)NC(=O)[C@@H]2CCCN2C(=O)[C@H]2CCCN2C(=O)[C@H](CCCCN)NC(=O)[C@H](CCCNC(N)=O)NC(=O)[C@H](Cc2ccc(O)cc2)NC1=O [compound 21] (cyclo(YR[Cit]FRV[dP]RR[2Nal]VY[Cit]K[dP]P)) | 550 | 114 | 0.6 | – | – | – | – |
| CC(C)[C@@H]1NC(=O)[C@H](Cc2ccc3ccccc3c2)NC(=O)[C@H](CCCNC(=N)N)NC(=O)[C@H](CCCNC(=N)N)NC(=O)[C@@H]2CCCN2C(=O)[C@H](C(C)C)NC(=O)[C@H](CCCNC(=N)N)NC(=O)[C@H](Cc2ccccc2)NC(=O)[C@H](CCCNC(N)=O)NC(=O)[C@H](CCCNC(=N)N)NC(=O)[C@H](Cc2ccc(O)cc2)NC(=O)[C@@H]2CCCN2C(=O)[C@H]2CCCN2C(=O)[C@H](CCCCN)NC(=O)[C@H](CCCNC(N)=O)NC(=O)[C@H](Cc2ccc(O)cc2)NC1=O [compound 22] (cyclo(YR[Cit]FRVPRR[2Nal]VY[Cit]K[dP]P)) | 300 | 139 | 0 | – | – | – | – |
| CC(C)[C@@H]1NC(=O)[C@H](Cc2ccc3ccccc3c2)NC(=O)[C@H](CCCNC(=N)N)NC(=O)[C@H](CCCNC(=N)N)NC(=O)[C@H]2CCCN2C(=O)[C@H](Cc2ccccc2)NC(=O)[C@H](CCCNC(=N)N)NC(=O)[C@H](Cc2ccccc2)NC(=O)[C@H](CCCNC(N)=O)NC(=O)[C@H](CCCNC(=N)N)NC(=O)[C@H](Cc2ccc(O)cc2)NC(=O)[C@@H]2CCCN2C(=O)[C@H]2CCCN2C(=O)[C@H](CCCCN)NC(=O)[C@H](CCCNC(N)=O)NC(=O)[C@H](Cc2ccc(O)cc2)NC1=O [compound 23] (cyclo(YR[Cit]FRF[dP]RR[2Nal]VY[Cit]K[dP]P)) | 1550 | 49 | 1.4 | – | – | – | – |
